Assays:
PDGF-R = PDGF-R Assay (cellular ELISA, U1242 cells); format: cell-based; design: concentration or dose not given beside the values
Method in brief: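 U1242 cells seeded in 0.5% serum, serum-starved, then exposed to compound for 2 hr at 37°C before 5–10 min ligand stimulation and lysis in HNTG. Lysate captured on receptor-antibody-coated plates; phosphotyrosine detected with polyclonal anti-pTyr, goat anti-rabbit IgG and ABTS/H2O2, A410 (ref 630 nm), versus untreated cells.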

EGFR = molecular target: T1, EGFR (Homo sapiens, UniProt P00533); assay: Biochemical EGFR Assay; design: concentration or dose not given beside the values
T1 construct: endogenous in cells; host or cells: A431 cells (lysate, captured with SUMO1 anti-EGFR antibody)
T1 sequence (P00533 25-1210): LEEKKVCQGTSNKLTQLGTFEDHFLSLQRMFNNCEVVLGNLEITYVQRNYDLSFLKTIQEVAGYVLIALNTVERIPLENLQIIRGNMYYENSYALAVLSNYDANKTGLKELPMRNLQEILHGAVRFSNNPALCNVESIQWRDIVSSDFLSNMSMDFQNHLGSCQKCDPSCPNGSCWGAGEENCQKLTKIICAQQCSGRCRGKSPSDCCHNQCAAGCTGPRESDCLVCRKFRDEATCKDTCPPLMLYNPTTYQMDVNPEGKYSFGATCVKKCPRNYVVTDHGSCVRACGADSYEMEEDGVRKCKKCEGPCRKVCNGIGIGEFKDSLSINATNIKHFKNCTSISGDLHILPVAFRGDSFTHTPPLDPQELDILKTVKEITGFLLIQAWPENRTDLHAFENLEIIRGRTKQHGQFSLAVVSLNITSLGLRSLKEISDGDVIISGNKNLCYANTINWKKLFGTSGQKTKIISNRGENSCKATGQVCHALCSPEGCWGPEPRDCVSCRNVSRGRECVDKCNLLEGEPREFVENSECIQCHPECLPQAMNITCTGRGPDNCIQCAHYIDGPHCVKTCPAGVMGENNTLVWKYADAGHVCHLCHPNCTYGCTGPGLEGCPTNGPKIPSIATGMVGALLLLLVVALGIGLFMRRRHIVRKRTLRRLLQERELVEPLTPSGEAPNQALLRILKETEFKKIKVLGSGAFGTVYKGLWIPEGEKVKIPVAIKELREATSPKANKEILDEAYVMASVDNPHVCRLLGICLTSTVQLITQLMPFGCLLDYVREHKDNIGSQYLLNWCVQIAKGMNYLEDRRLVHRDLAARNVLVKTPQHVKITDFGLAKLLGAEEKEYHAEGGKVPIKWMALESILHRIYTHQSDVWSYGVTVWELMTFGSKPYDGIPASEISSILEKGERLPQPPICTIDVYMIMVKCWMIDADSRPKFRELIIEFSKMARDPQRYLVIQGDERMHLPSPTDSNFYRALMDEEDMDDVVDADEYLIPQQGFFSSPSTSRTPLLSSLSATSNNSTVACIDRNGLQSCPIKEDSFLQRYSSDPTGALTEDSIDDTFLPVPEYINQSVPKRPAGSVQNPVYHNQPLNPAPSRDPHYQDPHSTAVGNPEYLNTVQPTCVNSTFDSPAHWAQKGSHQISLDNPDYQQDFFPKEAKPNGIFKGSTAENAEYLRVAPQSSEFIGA
Method in brief: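 EGFR from A431 lysate was captured on anti-EGFR-coated wells and preincubated 30 min with compound (diluted 1:10 in TBS) at room temperature. After ATP/MnCl2 phosphorylation for 5 min, the reaction was stopped with EDTA. Phosphotyrosine was detected by ELISA (anti-phosphotyrosine, peroxidase conjugate, ABTS) at 410 nm.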

| SMILES | PDGF Kinase % Inhibition (P.119) (PDGF-R) [%] | Biochem EGFR % Inhibition (P.167) (EGFR) [%] |
| --- | --- | --- |
| CC(C)(C)c1ccc(C=C2C(=O)Nc3ccc(CCCl)cc32)cc1 [10734/G10] | 9.9 | 3.8 |
| Cc1c(Br)cc(Br)c2c1C(=Cc1cc(Cl)ccc1O)C(=O)N2 [10734/H04] | 6.0 | 5.9 |
| CCOc1cccc(C=C2C(=O)Nc3ccc(I)cc32)c1O [10734/B02] | −2.9 | −8.9 |
| O=C1Nc2ccc(S(=O)(=O)N3CCOCC3)cc2C1=Cc1cc(Cl)ccc1O [10734/F04] | 25.0 | 3.9 |
| O=C1Nc2ccc(I)cc2C1=Cc1ccc([N+](=O)[O-])cc1 [10734/B06] | 0.2 | 54.0 |
| CC(C)(C)c1ccc(C=C2C(=O)Nc3ccc(I)cc32)cc1 [10734/B10] | 7.7 | 60.7 |
| CNS(=O)(=O)c1ccc2c(c1)C(=Cc1ccc(O)c(Br)c1)C(=O)N2 [10734/D09] | 42.2 | 21.0 |
| CNS(=O)(=O)c1ccc2c(c1)C(=Cc1ccc([N+](=O)[O-])cc1)C(=O)N2 [10734/D06] | −9.1 | 1.3 |
| CCOc1cccc(C=C2C(=O)Nc3ccc(S(=O)(=O)Nc4ccc(C(F)(F)F)cc4)cc32)c1O [10734/E02] | 50.1 | −10.8 |
| Cc1c(Br)cc(Br)c2c1C(=Cc1cc(Cl)cc(Cl)c1O)C(=O)N2 [10734/H03] | 8.6 | 6.6 |
| O=C1Nc2ccc(I)cc2C1=Cc1cccc(F)c1O [10734/B08] | −2.4 | 19.3 |
| O=C1Nc2ccc(I)cc2C1=Cc1ccc(Br)s1 [10734/B11] | −5.5 | 50.9 |
| CNS(=O)(=O)c1ccc2c(c1)C(=Cc1ccc(Br)s1)C(=O)N2 [10734/D11] | 17.0 | 14.6 |
| O=C1Nc2ccc(S(=O)(=O)Nc3ccc(C(F)(F)F)cc3)cc2C1=Cc1ccc(O)c(Br)c1 [10734/E09] | 1.1 | 73.0 |
| Cc1c(Br)ccc2c1C(=Cc1cc(Cl)ccc1O)C(=O)N2 [10734/C04] | 24.5 | 38.1 |
| CCN(CC)c1ccc(C=C2C(=O)Nc3ccc(I)cc32)c(O)c1 [10734/B05] | 56.3 | 17.8 |
| CNS(=O)(=O)c1ccc2c(c1)C(=Cc1cc(Cl)ccc1O)C(=O)N2 [10734/D04] | 13.5 | −10.7 |
| CCN(CC)c1ccc(C=C2C(=O)Nc3ccc(CCCl)cc32)c(O)c1 [10734/G05] | 2.9 | −0.3 |
| Cc1c(Br)ccc2c1C(=Cc1ccc(C(C)(C)C)cc1)C(=O)N2 [10734/C10] | 17.4 | 24.4 |
| O=C1Nc2ccc(CCCl)cc2C1=Cc1ccc(Br)s1 [10734/G11] | −25.4 | 4.1 |
| Cc1c(Br)ccc2c1C(=Cc1cccc(F)c1O)C(=O)N2 [10734/C08] | 5.5 | 35.1 |

| SMILES | PDGF Kinase % Inhibition (P.119) (PDGF-R) [%] | Biochem EGFR % Inhibition (P.167) (EGFR) [%] |
| --- | --- | --- |
| O=C1Nc2ccc(S(=O)(=O)Nc3ccc(C(F)(F)F)cc3)cc2C1=Cc1cccc(F)c1O [10734/E08] | 13.0 | 24.2 |
| O=C1Nc2c(Br)cc(Br)cc2C1=Cc1cc(Cl)ccc1O [10734/A04] | 11.7 | 11.4 |
| CNS(=O)(=O)c1ccc2c(c1)C(=Cc1ccc(C(C)(C)C)cc1)C(=O)N2 [10734/D10] | 9.9 | −4.4 |
| CCN(CC)c1ccc(C=C2C(=O)Nc3ccc(S(=O)(=O)N4CCOCC4)cc32)c(O)c1 [10734/F05] | −1.1 | −15.6 |
| O=C1Nc2c(Br)cc(Br)cc2C1=Cc1ccc(O)c(Br)c1 [10734/A09] | −9.5 | 27.3 |
| O=C1Nc2ccc(CCCl)cc2C1=Cc1cccc(F)c1O [10734/G08] | 0.2 | 33.7 |
| Cc1c(Br)ccc2c1C(=Cc1ccc([N+](=O)[O-])cc1)C(=O)N2 [10734/C06] | −0.2 | 18.4 |
| O=C1Nc2ccc(I)cc2C1=Cc1ccc(O)c(Br)c1 [10734/B09] | 12.6 | 34.9 |
| Cc1c(Br)ccc2c1C(=Cc1ccc(O)c(Br)c1)C(=O)N2 [10734/C09] | 11.3 | 36.2 |
| O=C1Nc2ccc(S(=O)(=O)Nc3ccc(C(F)(F)F)cc3)cc2C1=Cc1cc(Br)cc(Br)c1O [10734/E07] | 8.2 | 82.4 |
| O=C1Nc2ccc(CCCl)cc2C1=Cc1ccc(O)c(Br)c1 [10734/G09] | −7.7 | 21.4 |
| O=C1Nc2ccc(CCCl)cc2C1=Cc1cc(Br)cc(Br)c1O [10734/G07] | −25.0 | 51.1 |
| CC(C)(C)c1ccc(C=C2C(=O)Nc3ccc(S(=O)(=O)N4CCOCC4)cc32)cc1 [10734/F10] | 25.8 | −8.3 |
| O=C1Nc2ccc(S(=O)(=O)N3CCOCC3)cc2C1=Cc1cccc(F)c1O [10734/F08] | −6.0 | −23.6 |
| CC(C)(C)c1ccc(C=C2C(=O)Nc3c(Br)cc(Br)cc32)cc1 [10734/A10] | 26.3 | 27.8 |
| O=C1Nc2ccc(CCCl)cc2C1=Cc1cc(Cl)cc(Cl)c1O [10734/G03] | −3.8 | 82.8 |
| O=C1Nc2ccc(I)cc2C1=Cc1cc(Br)cc(Br)c1O [10734/B07] | 18.8 | 65.5 |
| CCOc1cccc(C=C2C(=O)Nc3ccc(Br)c(C)c32)c1O [10734/C02] | 36.0 | −6.7 |
| CNS(=O)(=O)c1ccc2c(c1)C(=Cc1cccc(F)c1O)C(=O)N2 [10734/D08] | 2.0 | −13.7 |
| O=C1Nc2ccc(S(=O)(=O)Nc3ccc(C(F)(F)F)cc3)cc2C1=Cc1cc(Cl)ccc1O [10734/E04] | 26.7 | −7.8 |
| O=C1Nc2ccc(S(=O)(=O)Nc3ccc(C(F)(F)F)cc3)cc2C1=Cc1ccc(Br)s1 [10734/E11] | 16.1 | −8.0 |

Reference: US20020026053A1, “Novel 3-(substituted) -2- indolinones compounds and use thereof as inhibitors of protein kinase activity” (priority 1997, published 2002)
